Experimental data as given in the supplement of paper PMC8671470.
± gives the standard deviation of the averaged measurements.

Experiments:
Settings in all cases: 72 h
MV4-11 [1] = test system: MV4-11
Outline: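 For the IC50, dose–response curves were fitted with a log-logistic model. The data came from fifteen myeloid leukaemia cell lines grown in RPMI 1640 at densities in the linear growth range and incubated in 384-well plates for 72 h at 37 °C under 5% CO2. Doses were five tenfold steps from 1 to 10,000 nM in duplicate, and luminescent ATP viability was normalised to vehicle and to a positive control at 10 µM before four-parameter fitting.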

HL-60 [2] = assay: area under dose-response curve (viability, 1 nM-10 uM) (fraction (0-1)); higher = more sensitive
Outline: (§1)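 A rescreen of the full library used HL-60 cells in RPMI 1640 with 10% FBS on 384-well plates, run in duplicate at five tenfold concentrations (1–10,000 nM). Each screen included DMSO or 100 nM of one of three metabolic inhibitors and ran 72 h at 37 °C, 5% CO2. CellTiter-Glo viability was scaled between DMSO and 10 μM proteasome-inhibitor wells. Any area under the curve comes from four-parameter log-logistic fits with drc and PharmacoGx.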

HL-60 [3] = assay: cell viability (% survival relative to DMSO control); higher = less cytotoxic
Outline: as §1

MV4-11 [4] = assay: cell viability (% survival relative to DMSO control, bortezomib = 0%); higher = less cytotoxic
Outline: (§2)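 In 384-well plates pre-printed with compounds at 1, 10, 100, 1000 or 10000 nM, duplicate wells received cells from 10 AML and 5 CML lines at densities within the linear growth range. The plates stayed at 37 °C with 5% CO2 for 72 h before CellTiter-Glo luminescence was recorded. Each entry is averaged percent survival. Scaling placed vehicle at 100% and a 10 µM positive control at 0%.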

KU-812 = assay: as above
Outline: as §2

LAMA-84 = assay: as above
Outline: as §2

NOMO-1 = assay: as above
Outline: as §2

BV-173 = assay: as above
Outline: as §2

THP-1 = assay: as above
Outline: as §2

SHI-1 = assay: as above
Outline: as §2

MOLM-13 = assay: as above
Outline: as §2

K-562 = assay: as above
Outline: as §2

KG-1 = assay: as above
Outline: as §2

ML-2 = assay: as above
Outline: as §2

HL-60 [5] = assay: as above
Outline: as §2

Mono-Mac-6 = assay: as above
Outline: as §2

KCL-22 = assay: as above
Outline: as §2

HEL = assay: as above
Outline: as §2

O=C(c1c2ccccc2cc2ccccc12)N1CCC(N2CCC[C@@H](C(=O)N3CCOCC3)C2)CC1
Settings	IC50 (cell viability) [µM]
MV4-11 [1]	8.82

Settings	area under dose-response curve, co-treatment: AZD3965 100 nM	area under dose-response curve, co-treatment: DMSO vehicle	area under dose-response curve, co-treatment: GSK2194069 100 nM	area under dose-response curve, co-treatment: pictilisib 100 nM	cell viability, 1 nM [%]	cell viability, 10 nM [%]	cell viability, 100 nM [%]	cell viability, 1000 nM [%]	cell viability, 10000 nM [%]
BV-173	–	–	–	–	111	108	118	86.5	70.9
HEL	–	–	–	–	106	108	110	77.3	94.7
HL-60 [2]	< 0.0301	< 0.0301	< 0.0301	< 0.0301	–	–	–	–	–
HL-60 [5]	–	–	–	–	104	69.9	118	59.2	41.5
K-562	–	–	–	–	112	106	119	94.9	75.7
KCL-22	–	–	–	–	107	108	118	99.6	78.3
KG-1	–	–	–	–	110	102	111	94	85.6
KU-812	–	–	–	–	100	108	103	95.3	96
LAMA-84	–	–	–	–	109	108	105	94.5	86.5
ML-2	–	–	–	–	126	118	119	98.5	86.4
MOLM-13	–	–	–	–	122	103	109	62.4	53.7
MV4-11 [4]	–	–	–	–	133	110	97.3	78.8	62.3
Mono-Mac-6	–	–	–	–	101	109	93.4	89.1	75.8
NOMO-1	–	–	–	–	106	108	104	99.6	95.2
SHI-1	–	–	–	–	110	96.3	107	101	90
THP-1	–	–	–	–	106	96.6	115	94.9	100

cell viability [%], HL-60 [3]
Settings	0.001 µM	0.01 µM	0.1 µM	1 µM	10 µM
co-treatment: AZD3965 100 nM	93.6 ± 7.8	96.9 ± 4.1	102 ± 0.61	101 ± 3.2	83.4 ± 2.8
co-treatment: DMSO vehicle	103 ± 4	100 ± 2.3	105.5 ± 0.56	101 ± 3.9	94.5 ± 2
co-treatment: GSK2194069 100 nM	92.4 ± 5.2	95.1 ± 1.6	98.29 ± 0.17	122 ± 30	95.7 ± 2.4
co-treatment: pictilisib 100 nM	93.4 ± 20	100 ± 17	103 ± 1.5	98.8 ± 13	78.8 ± 1.9

Cc1[nH]n(-c2ccccc2)c(=O)c1C1(C(F)(F)F)C(=O)N(c2ccccc2)C2=C1C(=O)CC(C)(C)C2 (stereo not given)
Settings	IC50 (cell viability) [µM]
MV4-11 [1]	> 10

Settings	area under dose-response curve, co-treatment: AZD3965 100 nM	area under dose-response curve, co-treatment: DMSO vehicle	area under dose-response curve, co-treatment: GSK2194069 100 nM	area under dose-response curve, co-treatment: pictilisib 100 nM	cell viability, 1 nM [%]	cell viability, 10 nM [%]	cell viability, 100 nM [%]	cell viability, 1000 nM [%]	cell viability, 10000 nM [%]
BV-173	–	–	–	–	103	89.2	128	99.8	111
HEL	–	–	–	–	94.3	104	108	90.8	90.9
HL-60 [2]	< 0.0301	< 0.0301	< 0.0301	< 0.0301	–	–	–	–	–
HL-60 [5]	–	–	–	–	121	120	104	77.6	103
K-562	–	–	–	–	89.6	100	103	108	97.3
KCL-22	–	–	–	–	84.5	140	99.2	108	103
KG-1	–	–	–	–	96.7	97.6	97.8	93.7	107
KU-812	–	–	–	–	104	94.3	97.7	111	95.3
LAMA-84	–	–	–	–	106	92.6	99.9	110	92.4
ML-2	–	–	–	–	98.6	87.9	115	101	99.8
MOLM-13	–	–	–	–	91.4	114	98.5	100	99.8
MV4-11 [4]	–	–	–	–	105	104	99.4	97.1	96.4
Mono-Mac-6	–	–	–	–	115	98.1	105	97.1	101
NOMO-1	–	–	–	–	104	94.6	108	101	101
SHI-1	–	–	–	–	101	109	109	108	104
THP-1	–	–	–	–	101	97.5	93.8	93.2	92

cell viability [%], HL-60 [3]
Settings	0.001 µM	0.01 µM	0.1 µM	1 µM	10 µM
co-treatment: AZD3965 100 nM	101.7 ± 0.96	100.9 ± 0.63	107 ± 1.1	98.5 ± 2.6	102 ± 9.5
co-treatment: DMSO vehicle	99.8 ± 1.2	100 ± 1.6	102 ± 4.3	102 ± 1.6	102 ± 3.6
co-treatment: GSK2194069 100 nM	98.536 ± 0.016	106 ± 5	105 ± 1.4	100.4 ± 0.11	97.8 ± 4.5
co-treatment: pictilisib 100 nM	97.2 ± 3.1	95.5 ± 1	101 ± 2.9	102 ± 8.8	104 ± 3

Nc1nc(O)c2c(CCc3ccc(C(=O)N[C@@H](CCC(=O)O)C(=O)O)cc3)c[nH]c2n1 [Pemetrexed]
Settings	IC50 (cell viability) [µM]
MV4-11 [1]	0.425

Settings	area under dose-response curve, co-treatment: AZD3965 100 nM	area under dose-response curve, co-treatment: DMSO vehicle	area under dose-response curve, co-treatment: GSK2194069 100 nM	area under dose-response curve, co-treatment: pictilisib 100 nM	cell viability, 1 nM [%]	cell viability, 10 nM [%]	cell viability, 100 nM [%]	cell viability, 1000 nM [%]	cell viability, 10000 nM [%]
BV-173	–	–	–	–	89.2	91.9	104	4.73	1.8
HEL	–	–	–	–	104	90.7	57.8	11.6	7.51
HL-60 [2]	0.24	0.233	0.236	0.223	–	–	–	–	–
HL-60 [5]	–	–	–	–	110	99.6	113	31.5	9.36
K-562	–	–	–	–	95.8	104	92.3	68.4	27.8
KCL-22	–	–	–	–	98.5	102	78.4	36.9	24.3
KG-1	–	–	–	–	92	93.5	91.6	108	102
KU-812	–	–	–	–	98.9	102	71.1	38.6	39.3
LAMA-84	–	–	–	–	99	99.3	40	30.7	26
ML-2	–	–	–	–	102	101	96.3	14	10.5
MOLM-13	–	–	–	–	95.6	101	93.5	4.73	1.7
MV4-11 [4]	–	–	–	–	98.7	94.2	106	13.4	5.7
Mono-Mac-6	–	–	–	–	91.2	92.2	87.3	23.5	20.3
NOMO-1	–	–	–	–	91	94.8	82.8	51.9	50.2
SHI-1	–	–	–	–	99.2	102	106	68	43.4
THP-1	–	–	–	–	85	96	101	61.7	56.8

cell viability [%], HL-60 [3]
Settings	0.001 µM	0.01 µM	0.1 µM	1 µM	10 µM
co-treatment: AZD3965 100 nM	91.8 ± 7	98.6 ± 2.1	107 ± 3.3	41.5 ± 2	28 ± 7.5
co-treatment: DMSO vehicle	102 ± 3.2	100.6 ± 0.94	112 ± 4.9	43.8 ± 6.4	36.8 ± 1.9
co-treatment: GSK2194069 100 nM	71.6 ± 6.5	95.7 ± 5.5	122 ± 25	40.1 ± 12	32.2 ± 2.7
co-treatment: pictilisib 100 nM	74.2 ± 33	100.6 ± 0.34	121 ± 20	47.2 ± 3.1	32.2 ± 1.7
